Results taken from US20150158914A1, “PEPTIDES, CONSTRUCTS AND USES THEREFOR” (priority 2010, published 2015).
“Also recorded” adds a separate entry of the source. Where two headings read alike, the source gives them in different places. Ends that are not written are not given here. * marks the point of attachment. FITC = O=C1OC2(c3ccc(O)cc3Oc3cc(O)ccc32)c2ccc(NC(=S)*)cc21; Biotin = O=C1N[C@H]2[C@H](CS[C@H]2CCCCC(=O)*)N1; Acp = not defined here

How the values were obtained:
mutated B-Raf = mutated B-Raf (Homo sapiens, UniProt P15056, V600E); details: in vivo; cited from earlier work
Chain of mutated B-Raf (P15056 whole entry V600E): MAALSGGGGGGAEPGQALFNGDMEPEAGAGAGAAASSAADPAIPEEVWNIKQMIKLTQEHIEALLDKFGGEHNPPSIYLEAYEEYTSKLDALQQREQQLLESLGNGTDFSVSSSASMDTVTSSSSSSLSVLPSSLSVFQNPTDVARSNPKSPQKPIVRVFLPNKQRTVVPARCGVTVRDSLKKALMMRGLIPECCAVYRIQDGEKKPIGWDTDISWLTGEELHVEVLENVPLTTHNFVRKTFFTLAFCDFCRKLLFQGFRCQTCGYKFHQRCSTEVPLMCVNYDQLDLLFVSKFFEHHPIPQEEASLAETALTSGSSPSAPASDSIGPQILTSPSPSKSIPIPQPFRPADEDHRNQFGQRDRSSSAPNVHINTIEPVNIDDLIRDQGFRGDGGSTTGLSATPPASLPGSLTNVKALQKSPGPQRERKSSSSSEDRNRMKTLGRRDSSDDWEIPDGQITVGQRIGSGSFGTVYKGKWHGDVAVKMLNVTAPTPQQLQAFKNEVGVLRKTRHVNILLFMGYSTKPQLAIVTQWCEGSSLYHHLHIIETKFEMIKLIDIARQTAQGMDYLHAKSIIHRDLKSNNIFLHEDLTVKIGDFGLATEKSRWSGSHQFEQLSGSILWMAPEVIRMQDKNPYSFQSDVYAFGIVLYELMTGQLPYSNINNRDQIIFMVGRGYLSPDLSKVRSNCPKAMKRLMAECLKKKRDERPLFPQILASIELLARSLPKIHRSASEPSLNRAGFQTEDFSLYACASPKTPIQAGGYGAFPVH

WM-266-4 melanoma cells [1] = experiment: Apoptosis by anti-B-raf antibody delivered with the carrier peptide (Annexin-V fluos); type: cell-based; details: 1 μg/ml, 3 h
Method: The carrier peptide-rabbit anti-B-raf antibody conjugate (1 μg/ml), the unconjugated carrier peptide and unconjugated anti-B-raf antibody (1 μg/ml) were added to WM-266-4 melanoma cells, and cell apoptosis was assessed after 3 h by addition of Annexin-V fluos, with visualization by fluorescence microscopy. Untreated cells were included as an additional control. Cell nuclei were stained with DAPI. The results were merged to illustrate the numbers of cells that underwent apoptosis compared with the total number of cells ie the proportion of cells that underwent apoptosis.

X-protein = experiment: Western blot of X-protein in transfected HepG2 cells treated with X-protein-degradation domain fusion peptides; type: cell-based, hepatitis B virus; details: HepG2 transfected with pCDNA3.1-HBX or pCDNA3-HBX Myc; 10 μM peptide at 3 h, 24 h and 48 h post transfection
Method: HepG2 cells were seeded into 6 well plates at 1×10^6 cells per well in MEM medium supplemented with 10% FCS, and cultured overnight at 37° and 5% CO2. No PSG antibiotic was added to the medium as it can interfere with transfection efficiency. The medium was then removed and replaced with MEM medium without 10% FCS. The amount of DNA used for transfection was 4 μg. Firstly, 4 μg of DNA was mixed with 250 μl of Opti-MEM medium, and then 4 μl of polymag transfection reagent was added. The mixture was incubated for 20 min and then added to the cells. The plate was placed onto a magnetic plate on a rotating platform for 20 min.
Cell-permeable X-protein-degradation domain fusion peptides were added at a concentration of 10 μM to the cells in MEM without 10% FCS and cells incubated for 45 h. […] An additional 10 μM of peptide was added after 3 h of incubation, and a further 10 μM of peptide was added after 21 h incubation. When the additional aliquots of peptide were added, the cells were washed in MEM without FCS, the peptides added, and the cells incubated for 3 h before changing the medium to MEM containing 10% FCS and PSG. The cells were lysed and analyzed by Western blot analysis for expression of the X-proteins.
Cells were washed with PBS, and detached from plates by incubation with trypsin diluted in PBS. Cells were washed with MEM containing FCS to inactivate trypsin, and pelleted by centrifugation at 175 g for 5 min. They were then resuspended in 1 ml of PBS, and a 10 μl sample was removed, stained with Trypan blue, and cell number counted with a haemocytometer. The cells were then pelleted at 4,000 g for 5 min and thrice washed in PBS. All traces of liquid were removed and the cells were ready for cell lysis. Complete Lysis Buffer was added to the cells at 20 μl per 1×10^6 cells. The cells were resuspended very well to aid lysis and then left on ice for 10 min. They were centrifuged at 15,000 g for 10 min, and the supernatant collected and saved. The nuclear precipitate was processed by adding 13 μl of lysis buffer, 2 μl of 2% SDS, 2 μl of Na deoxycholate, 2 μl of DNAse buffer and 1 μl of DNAse I. The sticky cell lysate was resuspended vigorously after each reagent was added then incubated at 37° for 10 min.
The two X-protein-ODD fusion peptides were tested for their ability to decrease the level of X-protein expression. HepG2 cells were transfected with 4 μg of either the X-protein plasmids pCDNA3.1-HBX and pCDNA3-HBX Myc, or 4 μg of the pCDNA3-GFP vector. The X-protein-ODD fusion peptides were repetitively added to the cells at 3 h, 24 h and 48 h post transfection. Control transfectants were not treated with peptide, but were otherwise cultured under the same conditions. Transfectants were subjected to Western blotting to determine whether the X-protein was expressed. […]

C32 melanoma cells = details: C32, 10 μM, 3 h
Method: (§1) The melanoma cell lines WM-266-4 and C32 were seeded into 8-well chamber slides at 1×10^5 cells per well in full MEM media and incubated at 37° C. and 5% CO2 overnight. The next day the cells were washed thrice with serum-free MEM, resuspended in 500 μl of the same medium, and added to the wells. […] Annexin-V labelling solution was prepared by adding 20 μl of Annexin V labelling reagent and 10 μl of propidium iodide in 1 ml of incubation buffer. The cells were washed with incubation buffer, and 100 μl of Annexin-V labelling solution was added, followed by incubation for 15 min in the dark. The cells were washed with incubation buffer, fixed with 4% formaldehyde in PBS for 30 min, washed with PBS and slide chambers removed. A drop of Prolong Gold anti-fade reagent with DAPI was added to each sample, the slides dried overnight, and then examined by fluorescence microscopy.

WM-266-4 melanoma cells [2] = details: WM-266-4, 20 μM, 3 h
Method: as §1

HepG2 cells = experiment: Assay for cell permeability of X-protein peptides (fluorescence and confocal microscopy); type: cell-based, human; details: for uptake by HepG2 cells (cell permeability): FITC-labelled peptide 10 μM, 3 h, medium without FCS; for intracellular distribution (confocal slicing): FITC-labelled peptide, HepG2 cells
Method: The cells were then incubated overnight at 37° and 5% CO2, and then washed thrice with media without FCS. The X-protein peptide in 250 μl of appropriate media without FCS was added to the cells at a final concentration of 10 μM, and the slides incubated for 3 h at 37° C. and 5% CO2. The cells were washed with PBS, fixed with 4% formaldahyde in PBS for 30 min, and washed thrice with PBS. […] The slides were dried overnight in the dark, and examined by microscopy by using a Nikon E600 fluorescent microscope. Photos were taken using Nikon ACT-1 software. For further examination, slides were then examined by confocal microscopy using a Leica TCS-SP2 confocal microscope.

[3] = target: T1, X-protein N-terminal peptide 1-50 (Hepatitis B virus genotype C subtype adr, UniProt Q81163, DEL44-44/P38S/S41A/S42F/V5L); experiment: Peptide binding assay: FITC-peptides on peptide 1-50-coated plates; details: FITC-peptide at 10, 20, 40 μg/ml, 30 min
T1 construct: The parent peptide containing aa 1-50 conjugated N-terminally to a biotin tag; purchased; host or cells: chemical synthesis
Method: Qligomerization peptides were received in powdered form, and were weighed and diluted in a sterile 10% DMSO solution to make a 10 mg/ml stock solution. The wells of a Reactibind neutravidin-coated 96 well plate (Thermoscientific cat #15507) were thrice washed with 200 μl of plate washing buffer. Peptide 1-50, which contains a biotin tag, was diluted to 10 μg/ml in wash buffer and 100 μl of the solution was placed into each well being used. The plate was incubated at room temperature for 2 h, and the wells washed thrice with 200 μl of wash buffer. Truncated fluorescent variants of peptide 1-50 at 40 μg/ml, 20 μg/ml, and 10 μg/ml were added to the wells in triplicate, and the plates incubated at room temperature for 30 min. The wells were then washed thrice with 200 μl of wash buffer under low light conditions, and the plate read on a Biotek fluorescent plate reader at an excitation wavelength of 490 nm and an emission wavelength of 520 nm.
A ligand-binding assay was performed using streptavidin-coated plates in order to define the minimum peptide motif needed for dimerization of the X-protein. In this scenario the X-protein monomer serves as its own ligand. […] A series of short peptides from the region encoding aa 1-50 were synthesized. The parent peptide containing aa 1-50 conjugated N-terminally to a biotin tag was added to the streptavidin coated plates. […] Non-biotinylated peptides encoding aa 1-20, 16-35, 21-40 and 34-53 were added at 10, 20, and 40 μg/ml to the wells coated with peptide aa 1-50. The smaller peptides were each conjugated to a FITC tag for detection using a fluorescent plate reader. […] Binding performed with lesser concentrations of the peptides was not significant. Even smaller peptides encompassing that region 16-35 were made to determine whether the aa 16-35 was the minimum peptide motif needed for X-protein dimerization. These peptides synthesized, namely aa 16-26, 16-24, and 16-22 were analyzed using the same peptide binding assay. […] Thus of the peptides examined, the minimal peptide motif needed for dimerization of the X-protein is the […] peptide 16-35.

[4] = tested on: TK-1 T cells adherent to MAdCAM-1; experiment: Carriage of a foreign peptide into TK-1 cells; type: cell-based; details: 50 μM, 30 min, streptavidin-FITC detection
Method: Eight-well glass chamber slides were coated overnight at 4° C. with MAdCAM-1-Fc. They were blocked with FCS at RT for 2 h. TK-1 T cells were activated with 2 mM Mn2+/Ca2+ in HBSS buffer and added to MAdCAM-1 coated glass slides, followed by incubation for 15 min. Peptides […] (SEQ ID NO 15) and R9YDRREY (SEQ ID NO 14) were added at 50 μM followed by incubation for 30 min. The cells were fixed overnight in 4% PFA, permeabilised with PBS+0.1% Tween 20 for 15 min, blocked with 3% BSA in PBS for 1 h, and the presence of the peptides detected with FITC-Streptavidin (1:200 dilution in 3% BSA in PBS 1 h). Slides were mounted with Prolong gold with DAPI.
The X-protein cell-permeable peptide LCLRPVG (SEQ ID NO: 2) was fused to the hexapeptide YDRREY (SEQ ID NO 16) taken from the cytoplasmic domain of the human integrin β7 subunit. The peptides were separated by a glycine linker, and a biotin tag was added N-terminally. The fusion peptide was compared with the YDRREY (SEQ ID NO 16) peptide fused to an R9 (SEQ ID NO: 145) carrier peptide for its ability to enter TK-1 T cells adherent to MAdCAM-1.

[5] = listed as biotin-RRRRRRRRHKLVRSPAPCKFFTSAGGLNVTAPTPQQLQAFKNEVGVLRK

CCCS(=O)(=O)Nc1ccc(F)c(C(=O)c2c[nH]c3ncc(-c4ccc(Cl)cc4)cc23)c1F [PLX4032]
patients with regression of melanomas (mutated B-Raf): 80 % of patients

Biotin-LCLRPVGGGRRRQQQQQQRRR
cell apoptosis (WM-266-4 melanoma cells [1]): no detectable effect

Biotin-RRRRRRRRHKLVRSPAPCKFFTSAGGLCLRPVGAESRGRPVSGPFG (cysteine pairing not given here)
degradation of the X-protein (Western blot, nuclear fraction) (X-protein): complete degradation of the X-protein

Biotin-RRRRRRRRHKLVRSPAPCKFFTSAGGLNVTAPTPQQLQAFKNEVGVLRK [B-Raf targeting peptide]
tumour cell death / apoptosis (C32 melanoma cells): killed the melanoma cells
tumour cell death / apoptosis (C32 melanoma cells; [5]): led to tumour cell death
tumour cell death / apoptosis (WM-266-4 melanoma cells [2]): killed the melanoma cells
tumour cell death / apoptosis (WM-266-4 melanoma cells [2]; [5]): led to tumour cell death

Biotin-RRRRRRRRLCLRPVGAESRGRPVSGPFGGCRHKLVRSPAPCKFFTSA (cysteine pairing not given here)
degradation of the X-protein (Western blot, nuclear fraction) (X-protein): near complete degradation of the X-protein, with slight preference for the full length protein

FITC-Acp-FGPLSSPAFSVPADHGAHLS ({FITC-Acp}-FGPLSSPAFSVPADHGAHLS; reading uncertain; also: printed as FITC-Acp-FGPLSSPAFSVPADHGAHLS) [Peptide 34-53]
uptake by HepG2 cells (cell permeability) (HepG2 cells): not cell-permeable

FITC-Acp-MAARLCCQLDPARDVLCLRP [Peptide 1-20]
uptake by HepG2 cells (cell permeability) (HepG2 cells; listed as aa 1-20): cell-permeable; also recorded: readily taken up by the cells
intracellular distribution (confocal slicing) (HepG2 cells): taken up into the cell cytoplasm, as well as into the nucleus

FITC-Acp-RRRRRRRRLCLRPVGAESRGRPVSGPFGGMLAPYIPM
degradation of the X-protein (Western blot, nuclear fraction) (X-protein): near complete degradation of the X-protein

FITC-Acp-RRRRRRRRMLAPYIPMGGLCLRPVGAESRGRPVSGPFG
degradation of the X-protein (Western blot, nuclear fraction) (X-protein): complete degradation of the X-protein

FITC-Acp-VGAESRGRPVSGPFGPLSSP ({FITC-Acp}-VGAESRGRPVSGPFGPLSSP; reading uncertain; also: printed as FITC-Acp-VGAESRGRPVSGPFGPLSSP) [Peptide 21-40]
binding to peptide 1-50 (fluorescence) [3]: failed to appreciably bind peptide 1-50
uptake by HepG2 cells (cell permeability) (HepG2 cells): not cell-permeable

FITC-LCLRP ({FITC}-LCLRP) [Peptide 16-20]
uptake by HepG2 cells (cell permeability) (HepG2 cells; listed as aa 16-20): cell-permeable; also recorded: taken up into the cells

FITC-LCLRPVGAE ({FITC}-LCLRPVGAE) [Peptide 16-24]
binding to peptide 1-50 (fluorescence) [3]: could not match the strong binding shown by the parental peptide 16-35
uptake by HepG2 cells (cell permeability) (HepG2 cells; listed as aa 16-24): cell-permeable, being taken up by cells at a level equivalent to that of the parental peptide aa 16-35

FITC-LCLRPVGAESR ({FITC}-LCLRPVGAESR) [Peptide 16-26]
binding to peptide 1-50 (fluorescence) [3]: could not match the strong binding shown by the parental peptide 16-35
uptake by HepG2 cells (cell permeability) (HepG2 cells; listed as aa 16-26): cell-permeable, being taken up by cells at a level equivalent to that of the parental peptide aa 16-35

LCLRPVGAESRGRPV [Peptide 16-30]
binding to peptide 1-50 (fluorescence) [3]: binds to the X-protein N-terminal peptide 1-50; also recorded: bound peptide 1-50 even more strongly than peptide 16-35

LCLRPVGGYDRREY (Biotin-LCLRPVGGYDRREY) [biotinylated LCLRPVG fused via glycine linker to β7 integrin hexapeptide YDRREY]
uptake of biotinylated fusion peptide into TK-1 cells [4]: uniformly taken up in similar amounts by all cells

MAARLCCQ (cysteine pairing not given here; also: fluorescein label, position not given here) [Peptide 1-8]
uptake by HepG2 cells (cell permeability) (HepG2 cells): cell-permeable

MAARLCCQLDPARDV [Peptide 1-15]
uptake by HepG2 cells (cell permeability) (HepG2 cells; listed as aa 1-15): cell-permeable; also recorded: taken up into the cells
intracellular distribution (confocal slicing) (HepG2 cells): taken up into the cytoplasm and nucleus

R9YDRREY (RRRRRRRRRYDRREY; not fully specified (N-terminus); also: biotin, position not given here) [Peptide R9YDRREY, biotinylated YDRREY peptide fused to an R9 carrier peptide, reference compound]
uptake of biotinylated fusion peptide into TK-1 cells [4]: entered all the cells
